Assays:
Assay type in all cases: cell-based, mouse
[1] = tested on: MAPK & MC1R signaling pathway proteins; experiment: Western blotting of MAPK & MC1R signaling pathway proteins after FAM86A knockdown; settings: B16F10 cells, 48 hours
Description: The B16F10 cells cultured in Example 1 were seeded in 6-well plates at a density of 5×10^4 cells per well, grown for 24 hours, and FAM86A shRNA represented by SEQ ID NO: 17 was used to induce the knockdown of FAM86A gene. The cells were cultured in an incubator under conditions of 37° C. and 5% CO2 for 48 hours. Afterward, the cells were washed twice with PBS. After completely removing the PBS, 200 μL of RIPA buffer, which is a cell lysis and staining reagent, was added to the plate, and the cells were collected using a scraper. Afterward, a protein was quantified using a BCA assay, and electrophoresis was performed using 10% SDS-PAGE. The protein in the resulting PAGE gel was transferred onto a PVDF membrane, and the resulting PVDF membrane onto which the protein transfer had been completed was blocked in TBS-T (in 100 mM NaCl, 10 mM Tris, 0.1% (v/v) Tween-20, pH 7.4 (PBST) containing 3% BSA) at room temperature. Then, after washing three times for 10 minutes using TBS-T, a primary antibody in 3% BSA dissolved in TBS-T was treated for 1 hour, and sufficiently washed with TBS-T. In addition, a secondary antibody was treated for 1 hour, and washed three times with PBS-T for 10 minutes each. Subsequently, the amount and location of a specific protein were confirmed using an ECL detection system. The correction of the protein amount was performed by checking the amount of an actin protein by stripping the PVDF membrane, and confirming it to have the same amount as that of the protein of interest. The primary and secondary antibodies were purchased from Cell Signaling and Santa Cruz.

B16F10 cells [2] = experiment: Fontana-Masson staining after FAM86A knockdown; settings: α-MSH 100 nM, 48 hours, microscope
Description: The B16F10 cells cultured in Example 1 were seeded in 6-well plates at a density of 5×10^4 cells per well, grown for 24 hours, and FAM86A shRNA represented by SEQ ID NO: 17 was used for knockdown of the FAM86A gene. The cells were treated with α-MSH at 100 nM. The resulting cells were cultured in an incubator under conditions of 37° C. and 5% CO2 for 48 hours, washed twice with PBS, and 1 mL of a 1% ammoniacal silver nitrate solution was added to each well, followed by heating a plate in a 60° C. dryer for 1 hour. Subsequently, the plate was washed three times with running water, and treated with 1 mL of a 0.2% gold chloride solution per well for 30 seconds. Afterward, the plate was washed twice with running water, treated with 1 mL of a 5% sodium thiosulfate solution per well, washed twice with running water, treated with 1 mL of a 0.5% neutral red solution per well for 2 minutes, and then washed with running water. The reaction result was confirmed under a microscope.

B16F10 cells [3] = experiment: Melanin content assay after FAM86A knockdown; settings: FAM86A knockdown without α-MSH, 48 hours, absorbance 405 nm
Description: The B16F10 cells cultured in Example 1 were seeded in a 6-well plate at 5×10^4 cells/well and cultured for 24 hours, and the knockdown of the FAM86A gene was induced using FAM86A shRNA represented by SEQ ID NO: 17. The cells were cultured in an incubator under conditions of 37° C. and 5% CO2 for 48 hours, the medium was removed, and then a cell lysis buffer was added at 200 μL per well to lyse the cells, followed by centrifugation at 4° C. and 12,000 rpm for 5 minutes and removal of a supernatant. The resulting pellet was treated with 100 μL of a 10% sodium dodecyl sulfate-1M NaOH solution, and heated for 30 minutes at 60° C. Afterward, the heated solution was maintained at room temperature to cool to 25° C., and absorbance at 405 nm was measured. Here, an amount of melanin production was calculated based on 100% of the amount of melanin in cells in which the FAM86A gene was not knocked down.

SEQ ID NO: 17: FAM86 shRNA (Mus musculus, NM_027446.2), pLKO.1 vector, target sequence SEQ ID NO: 27; used in the examples (DNA CCGGGTCTATGTAGCCTATACTATCCTCGAGGATAGTATAGGCTACATAGACTTTTTG)
expression level of MITF protein [1]: significantly increased | expression level of p-CREB protein [1]: significantly increased | expression level of p-PKA protein [1]: significantly increased | p-ERK [1]: decreased | p-JNK [1]: increased | p-p38 [1]: increased | presence of melanin (Fontana-Masson staining) (B16F10 cells [2]): more present | amount of melanin (production) (B16F10 cells [3]): increased
